Experimental data taken from ChEMBL document CHEMBL4004838, “Design and synthesis of novel phenyl -1, 4-beta-carboline-hybrid molecules as potential anticancer agents” (Eur J Med Chem, 2017).

Tests used:
Format in all cases: functional
A549 = assay: Growth inhibition of human A549/ATCC cells incubated for 48 hrs by sulforhodamine B assay; conditions: A549, 48 h
NCI-H460 = assay: Growth inhibition of human NCI-H460 cells incubated for 48 hrs by sulforhodamine B assay; conditions: NCI-H460, 48 h
HCT-116 [1] = assay: Growth inhibition of human HCT116 cells incubated for 48 hrs by sulforhodamine B assay; conditions: HCT-116, 48 h
SW-620 = assay: Growth inhibition of human SW620 cells incubated for 48 hrs by sulforhodamine B assay; conditions: SW-620, 48 h
M14 = assay: Growth inhibition of human M14 cells incubated for 48 hrs by sulforhodamine B assay; conditions: M14, 48 h
SK-MEL-5 = assay: Growth inhibition of human SK-MEL-5 cells incubated for 48 hrs by sulforhodamine B assay; conditions: SK-MEL-5, 48 h
UACC-62 [2] = assay: Growth inhibition of human UACC62 cells incubated for 48 hrs by sulforhodamine B assay; conditions: UACC-62, 48 h
K562 [3] = assay: Growth inhibition of human K562 cells assessed as cell growth at 0.01 uM incubated for 48 hrs by sulforhodamine B assay relative to control; conditions: K562, 48 h, read-out: Activity
HCT-116 [4] = assay: Growth inhibition of human HCT116 cells assessed as cell growth at 0.01 uM incubated for 48 hrs by sulforhodamine B assay relative to control; conditions: HCT-116, 48 h, read-out: Activity
786-0 [5] = assay: Growth inhibition of human 786-0 cells assessed as cell growth at 0.01 uM incubated for 48 hrs by sulforhodamine B assay relative to control; conditions: 786-0, 48 h, read-out: Activity
RXF 393 [6] = assay: Growth inhibition of human RXF393 cells assessed as cell growth at 0.01 uM incubated for 48 hrs by sulforhodamine B assay relative to control; conditions: RXF 393, 48 h, read-out: Activity
DU-145 [7] = assay: Growth inhibition of human DU145 cells assessed as cell growth at 0.01 uM incubated for 48 hrs by sulforhodamine B assay relative to control; conditions: DU-145, 48 h, read-out: Activity
K562 [8] = assay: Growth inhibition of human K562 cells assessed as cell growth at 0.1 uM incubated for 48 hrs by sulforhodamine B assay relative to control; conditions: K562, 48 h, read-out: Activity
RPMI-8226 [9] = assay: Growth inhibition of human RPMI8226 cells assessed as cell growth at 0.1 uM incubated for 48 hrs by sulforhodamine B assay relative to control; conditions: RPMI-8226, 48 h, read-out: Activity
HOP-62 [10] = assay: Growth inhibition of human HOP62 cells assessed as cell growth at 0.1 uM incubated for 48 hrs by sulforhodamine B assay relative to control; conditions: HOP-62, 48 h, read-out: Activity
KM12 = assay: Growth inhibition of human KM12 cells assessed as cell growth at 0.1 uM incubated for 48 hrs by sulforhodamine B assay relative to control; conditions: KM12, 48 h, read-out: Activity
RXF 393 [11] = assay: Growth inhibition of human RXF393 cells assessed as cell growth at 0.1 uM incubated for 48 hrs by sulforhodamine B assay relative to control; conditions: RXF 393, 48 h, read-out: Activity
DU-145 [12] = assay: Growth inhibition of human DU145 cells assessed as cell growth at 0.1 uM incubated for 48 hrs by sulforhodamine B assay relative to control; conditions: DU-145, 48 h, read-out: Activity
HOP-62 [13] = assay: Growth inhibition of human HOP62 cells assessed as cell growth at 1 uM incubated for 48 hrs by sulforhodamine B assay relative to control; conditions: HOP-62, 48 h, read-out: Activity
NCI-H226 = assay: Growth inhibition of human NCI-H226 cells assessed as cell growth at 1 uM incubated for 48 hrs by sulforhodamine B assay relative to control; conditions: NCI-H226, 48 h, read-out: Activity
SNB-19 = assay: Growth inhibition of human SNB19 cells assessed as cell growth at 1 uM incubated for 48 hrs by sulforhodamine B assay relative to control; conditions: SNB-19, 48 h, read-out: Activity
SNB-75 = assay: Growth inhibition of human SNB75 cells assessed as cell growth at 1 uM incubated for 48 hrs by sulforhodamine B assay relative to control; conditions: SNB-75, 48 h, read-out: Activity
SK-MEL-2 = assay: Growth inhibition of human SK-MEL-2 cells assessed as cell growth at 1 uM incubated for 48 hrs by sulforhodamine B assay relative to control; conditions: SK-MEL-2, 48 h, read-out: Activity
UACC-62 [14] = assay: Growth inhibition of human UACC62 cells assessed as cell growth at 1 uM incubated for 48 hrs by sulforhodamine B assay relative to control; conditions: UACC-62, 48 h, read-out: Activity
OVCAR-3 = assay: Growth inhibition of human OVCAR3 cells assessed as cell growth at 1 uM incubated for 48 hrs by sulforhodamine B assay relative to control; conditions: OVCAR-3, 48 h, read-out: Activity
786-0 [15] = assay: Growth inhibition of human 786-0 cells assessed as cell growth at 1 uM incubated for 48 hrs by sulforhodamine B assay relative to control; conditions: 786-0, 48 h, read-out: Activity
ACHN = assay: Growth inhibition of human ACHN cells assessed as cell growth at 1 uM incubated for 48 hrs by sulforhodamine B assay relative to control; conditions: read-out: Activity
CAKI-1 [16] = assay: Growth inhibition of human Caki1 cells assessed as cell growth at 1 uM incubated for 48 hrs by sulforhodamine B assay relative to control; conditions: CAKI-1, 48 h, read-out: Activity
RPMI-8226 [17] = assay: Growth inhibition of human RPMI8226 cells assessed as cell growth at 100 uM incubated for 48 hrs by sulforhodamine B assay relative to control; conditions: RPMI-8226, 48 h, read-out: Activity
SF-539 = assay: Growth inhibition of human SF539 cells assessed as cell growth at 100 uM incubated for 48 hrs by sulforhodamine B assay relative to control; conditions: SF-539, 48 h, read-out: Activity
CAKI-1 [18] = assay: Growth inhibition of human Caki1 cells assessed as cell growth at 100 uM incubated for 48 hrs by sulforhodamine B assay relative to control; conditions: CAKI-1, 48 h, read-out: Activity
[19] = read-out: LC50 (the source's name)
[20] = read-out: pLC50 (the source's name) (converted)

c1ccc2c3c([nH]c2c1)C(c1ccc(C2NCCc4c2[nH]c2ccccc42)cc1)NCC3 (racemic)
GI50 (A549; read-out: GI50): 1.1 µM | TGI (A549; read-out: TGI): 2.54 µM | GI50 (A549; read-out: pGI50 (converted)): 1.1 µM | TGI (A549; read-out: pTGI (converted)): 2.51 µM | GI50 (NCI-H460; read-out: GI50): 2.21 µM | CC50 (NCI-H460; [19]): 9.12 µM | TGI (NCI-H460; read-out: TGI): 4.49 µM | GI50 (NCI-H460; read-out: pGI50 (converted)): 0.219 µM | CC50 (NCI-H460; [20]): 0.912 µM | TGI (NCI-H460; read-out: pTGI (converted)): 4.47 µM | GI50 (HCT-116 [1]; read-out: GI50): 1.7 µM | CC50 (HCT-116 [1]; [19]): 6.59 µM | TGI (HCT-116 [1]; read-out: TGI): 3.35 µM | GI50 (HCT-116 [1]; read-out: pGI50 (converted)): 0.17 µM | CC50 (HCT-116 [1]; [20]): 0.661 µM | GI50 (SW-620; read-out: GI50): 1.85 µM | CC50 (SW-620; [19]): 6.39 µM | TGI (SW-620; read-out: TGI): 3.44 µM | GI50 (SW-620; read-out: pGI50 (converted)): 0.186 µM | CC50 (SW-620; [20]): 0.646 µM | CC50 (M14; [19]): 4.65 µM | GI50 (M14; read-out: pGI50 (converted)): 0.407 µM | CC50 (M14; [20]): 4.68 µM | TGI (M14; read-out: pTGI (converted)): 1.58 µM | GI50 (SK-MEL-5; read-out: GI50): 1.7 µM | CC50 (SK-MEL-5; [19]): 5.75 µM | TGI (SK-MEL-5; read-out: TGI): 3.13 µM | GI50 (SK-MEL-5; read-out: pGI50 (converted)): 1.7 µM | CC50 (SK-MEL-5; [20]): 5.75 µM | TGI (SK-MEL-5; read-out: pTGI (converted)): 3.16 µM | CC50 (UACC-62 [2]; [19]): 5.15 µM | GI50 (UACC-62 [2]; read-out: pGI50 (converted)): 0.741 µM | CC50 (UACC-62 [2]; [20]): 5.13 µM | TGI (UACC-62 [2]; read-out: pTGI (converted)): 2.14 µM | growth at 0.01 µM (K562 [3]): 113% | growth at 0.01 µM (HCT-116 [4]): 91% | growth at 0.01 µM (786-0 [5]): 96% | growth at 0.01 µM (RXF 393 [6]): 101% | growth at 0.01 µM (DU-145 [7]): 100% | growth at 0.1 µM (K562 [8]): 114% | growth at 0.1 µM (RPMI-8226 [9]): 105% | growth at 0.1 µM (HOP-62 [10]): 85% | growth at 0.1 µM (KM12): 95% | growth at 0.1 µM (RXF 393 [11]): 101% | growth at 0.1 µM (DU-145 [12]): 100% | growth at 1 µM (HOP-62 [13]): 68% | growth at 1 µM (NCI-H226): 94% | growth at 1 µM (SNB-19): 88% | growth at 1 µM (SNB-75): 46% | growth at 1 µM (SK-MEL-2): 86% | growth at 1 µM (UACC-62 [14]): 43% | growth at 1 µM (OVCAR-3): 65% | growth at 1 µM (786-0 [15]): 92% | growth at 1 µM (ACHN): 42% | growth at 1 µM (CAKI-1 [16]): 78% | growth at 100 µM (RPMI-8226 [17]): 75% | growth at 100 µM (SF-539): 97% | growth at 100 µM (CAKI-1 [18]): -98%
